The experiment deals with Prokineticin receptor 1 (Homo sapiens, UniProt Q8TCW9). The experiment can be described thus: Antagonist activity at human PKR1 expressed in RBL2H3 cells assessed as inhibition of prokineticin1-mediated intracellular calcium release preincubated for 10 mins followed by PK1 addition by FLIPR assay. Type of experiment: functional, cell-based, RBL-2H3.

Each structure is given as a SMILES string.

The IC50 is the midpoint of a concentration-inhibition curve.

Prokineticin receptor 1, sequence (Q8TCW9 whole entry): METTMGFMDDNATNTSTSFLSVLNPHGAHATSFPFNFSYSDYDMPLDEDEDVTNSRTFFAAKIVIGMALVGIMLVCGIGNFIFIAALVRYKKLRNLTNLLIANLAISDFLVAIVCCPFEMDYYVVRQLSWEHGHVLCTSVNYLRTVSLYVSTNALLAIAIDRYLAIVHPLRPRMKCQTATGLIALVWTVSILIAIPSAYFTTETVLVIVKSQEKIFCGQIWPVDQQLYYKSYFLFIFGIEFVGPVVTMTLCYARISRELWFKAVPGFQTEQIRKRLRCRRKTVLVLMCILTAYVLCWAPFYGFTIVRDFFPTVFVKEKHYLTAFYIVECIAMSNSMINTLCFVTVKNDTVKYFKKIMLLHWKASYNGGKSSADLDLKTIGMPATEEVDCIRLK

As for `Cc1n[nH]c(C)c1S(=O)(=O)N1CCC(=C(F)c2ccc(F)cc2F)CC1`, the IC50 stood at 1630 nM.

(Values after ChEMBL document CHEMBL3879916, “1-sulfonyl piperidine derivatives as modulators of prokineticin receptors” (2014).)
